Columns and labels:
[1] = target: T1, Histamine H3 receptor (Homo sapiens, UniProt Q9Y5N1); assay: Inhibition of cAMP-stimulated beta-galactosidase transcription in SK-N-MC cells expressing human H3 receptor; format: functional, cell-based
[2] = target: T1, Histamine H3 receptor; assay: Displacement of [3H]N-R-methylhistamine binding to SK-N-MC cell membranes expressing human H3 receptor
[3] = system: Histamine H3 receptor (Cavia porcellus); assay: Effect on guinea pig ileal muscle contraction evoked by electrical field stimulation (EFS)
[4] = target: Histamine H2 receptor (Homo sapiens, UniProt P25021); assay: Displacement of [125I]aminopotentidine binding to CHO cell membranes expressing human histamine H2 receptor
Histamine H2 receptor, sequence (P25021 whole entry): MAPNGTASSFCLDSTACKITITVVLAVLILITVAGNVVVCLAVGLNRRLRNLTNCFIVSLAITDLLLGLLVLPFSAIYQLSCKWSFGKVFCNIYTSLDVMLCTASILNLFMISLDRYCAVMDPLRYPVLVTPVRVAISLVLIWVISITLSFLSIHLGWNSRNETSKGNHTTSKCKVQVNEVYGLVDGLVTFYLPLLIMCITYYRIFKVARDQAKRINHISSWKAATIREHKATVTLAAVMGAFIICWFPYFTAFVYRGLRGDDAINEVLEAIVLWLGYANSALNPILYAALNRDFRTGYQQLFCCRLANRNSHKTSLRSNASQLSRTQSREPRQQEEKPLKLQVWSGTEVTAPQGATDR

[5] = target: Histamine H4 receptor (Homo sapiens, UniProt Q9H3N8); assay: Displacement of [3H]histamine binding to SK-N-MC cell membranes expressing human histamine H4 receptor
Histamine H4 receptor, sequence (Q9H3N8 whole entry): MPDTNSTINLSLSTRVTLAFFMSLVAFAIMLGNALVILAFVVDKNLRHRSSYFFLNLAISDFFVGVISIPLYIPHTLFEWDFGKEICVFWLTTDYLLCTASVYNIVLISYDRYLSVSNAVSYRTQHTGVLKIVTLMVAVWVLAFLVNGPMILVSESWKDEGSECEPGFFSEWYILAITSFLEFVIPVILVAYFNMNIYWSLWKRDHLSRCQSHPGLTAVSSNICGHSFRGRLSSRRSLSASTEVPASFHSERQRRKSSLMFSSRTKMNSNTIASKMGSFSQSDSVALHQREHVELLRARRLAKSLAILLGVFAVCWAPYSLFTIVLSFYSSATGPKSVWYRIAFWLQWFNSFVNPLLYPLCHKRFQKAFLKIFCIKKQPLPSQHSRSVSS

[6] = target: Histamine H1 receptor (Homo sapiens, UniProt P35367); assay: Displacement of [3H]mepyramine binding to COS-7 cell membranes expressing human histamine H1 receptor
Histamine H1 receptor, sequence (P35367 whole entry): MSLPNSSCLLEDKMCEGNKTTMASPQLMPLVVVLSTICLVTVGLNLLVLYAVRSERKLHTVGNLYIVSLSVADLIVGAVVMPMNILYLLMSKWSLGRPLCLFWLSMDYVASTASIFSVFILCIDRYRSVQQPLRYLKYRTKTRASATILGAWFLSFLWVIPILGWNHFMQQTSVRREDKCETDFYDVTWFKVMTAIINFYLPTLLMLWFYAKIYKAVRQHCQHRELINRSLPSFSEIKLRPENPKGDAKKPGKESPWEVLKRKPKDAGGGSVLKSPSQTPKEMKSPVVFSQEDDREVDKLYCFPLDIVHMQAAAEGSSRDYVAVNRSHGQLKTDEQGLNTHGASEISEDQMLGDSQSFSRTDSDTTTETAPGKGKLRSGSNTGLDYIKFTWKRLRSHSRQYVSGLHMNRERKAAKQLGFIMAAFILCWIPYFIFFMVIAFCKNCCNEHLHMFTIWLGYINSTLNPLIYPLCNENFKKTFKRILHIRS

T1 sequence (Q9Y5N1 whole entry): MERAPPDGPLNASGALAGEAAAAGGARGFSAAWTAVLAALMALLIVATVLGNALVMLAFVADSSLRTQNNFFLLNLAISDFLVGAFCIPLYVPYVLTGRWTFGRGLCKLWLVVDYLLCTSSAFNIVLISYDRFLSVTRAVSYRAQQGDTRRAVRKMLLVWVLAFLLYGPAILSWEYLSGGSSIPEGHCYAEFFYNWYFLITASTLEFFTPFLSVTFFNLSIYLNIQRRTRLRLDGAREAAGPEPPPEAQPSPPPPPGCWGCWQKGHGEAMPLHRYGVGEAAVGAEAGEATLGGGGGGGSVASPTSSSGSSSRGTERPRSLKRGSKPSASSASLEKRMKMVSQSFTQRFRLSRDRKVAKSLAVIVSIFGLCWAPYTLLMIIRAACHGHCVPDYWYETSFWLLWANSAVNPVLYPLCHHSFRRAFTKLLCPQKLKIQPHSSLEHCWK

Question: `c1nc(CCC2CCNCC2)c[nH]1` was tested. Which EC50 [1] did it give?
Answer: 12.6 nM

Question: What does the source list for `CCN1CCC(=Cc2c[nH]cn2)CC1`?
Answer: EC50 [1]: 25.1 nM; Ki [2]: 50.1 nM

Question: Which results are given for `c1ccc(CN2CCC(CCc3c[nH]cn3)CC2)cc1`?
Answer: EC50 [1]: > 10000 nM; Ki [2]: 79.4 nM

Question: What does the source list for `CN1CCC(CCc2c[nH]cn2)CC1`?
Answer: EC50 [1]: 50.1 nM; Ki [2]: 50.1 nM

Question: What does the source list for `c1ccc(CCN2CCC(CCc3c[nH]cn3)CC2)cc1`?
Answer: EC50 [1]: > 10000 nM; Ki [2]: 39.8 nM

Question: For `CC(C)N1CCC(Cc2c[nH]cn2)CC1`, which EC50 [1] is on record?
Answer: 7.94 nM

Question: And the Ki [2]?
Answer: 63.1 nM

Question: `c1nc(CC2CCN(C3CCCCC3)CC2)c[nH]1` was tested. Which EC50 [1] did it give?
Answer: 3.98 nM

Question: And the Ki [2]?
Answer: 15.8 nM

Question: How did the EC50 [1] turn out when `CCN1CCC(Cc2c[nH]cn2)CC1` was run?
Answer: 3.98 nM

Question: And the Ki [2]?
Answer: 15.8 nM

Question: What does the source list for `CCN1CCC(CCc2c[nH]cn2)CC1`?
Answer: EC50 [1]: > 10000 nM; Ki [2]: 63.1 nM

Question: `C(=C1CCN(C2CCCCC2)CC1)c1c[nH]cn1` was tested. Which EC50 [1] did it give?
Answer: 50.1 nM

Question: And the Ki [2]?
Answer: 31.6 nM

Question: How did the EC50 [1] turn out when `CN1CCC(=Cc2c[nH]cn2)CC1` was run?
Answer: 2.51 nM

Question: What about the Ki [2] of the same compound?
Answer: 5.01 nM

Question: For `C(=C1CCN(CCc2ccccc2)CC1)c1c[nH]cn1`, which EC50 [1] is on record?
Answer: 15.8 nM

Question: What about the Ki [2] of the same compound?
Answer: 63.1 nM

Question: With `C(=C1CCN(Cc2ccccc2)CC1)c1c[nH]cn1` as the compound, how does the EC50 [1] read?
Answer: 79.4 nM

Question: And the Ki [2]?
Answer: 398 nM

Question: For `c1ccc(CCN2CCC(Cc3c[nH]cn3)CC2)cc1`, which EC50 [1] is on record?
Answer: 7.94 nM

Question: What about the Ki [2] of the same compound?
Answer: 10 nM

Question: Which results are given for `CC(C)N1CCC(CCc2c[nH]cn2)CC1`?
Answer: EC50 [1]: 200 nM; Ki [2]: 100 nM

Question: For `C(=C1CCNCC1)c1c[nH]cn1`, which Ki [2] is on record?
Answer: 6.31 nM

Question: What does the source list for `CC(C)N1CCC(=Cc2c[nH]cn2)CC1`?
Answer: EC50 [1]: 63.1 nM; Ki [2]: 63.1 nM

Question: For `c1ccc(CCCN2CCC(Cc3c[nH]cn3)CC2)cc1`, which EC50 [1] is on record?
Answer: 31.6 nM

Question: What about the Ki [2] of the same compound?
Answer: 39.8 nM

Question: `c1nc(CCC2CCN(C3CCCCC3)CC2)c[nH]1` was tested. Which EC50 [1] did it give?
Answer: 316 nM

Question: What about the Ki [2] of the same compound?
Answer: 158 nM

Question: `c1ccc(CN2CCC(Cc3c[nH]cn3)CC2)cc1` was tested. Which EC50 [1] did it give?
Answer: 15.8 nM

Question: What about the Ki [2] of the same compound?
Answer: 50.1 nM

Question: How did the pD2 [3] turn out when `c1nc(CC2CCNCC2)c[nH]1` [IMMEPIP] was run?
Answer: 8.4

Question: What about the Ki [4] of the same compound?
Answer: > 10 µM

Question: What about the Ki [2] of the same compound?
Answer: 0.501 nM

Question: What about the Ki [5] of the same compound?
Answer: 20 nM

Question: `CN1CCC(Cc2c[nH]cn2)CC1` [METHIMEPIP] was tested. Which EC50 [1] did it give?
Answer: 0.316 nM

Question: And the pD2 [3]?
Answer: 8.26

Question: And the Ki [4]?
Answer: > 10 µM

Question: And the Ki [2]?
Answer: 1 nM

Question: And the Ki [6]?
Answer: > 10 µM

Question: What about the Ki [5] of the same compound?
Answer: 2000 nM

From ChEMBL document CHEMBL1142738, “N-substituted piperidinyl alkyl imidazoles: discovery of methimepip as a potent and selective histamine H3 receptor agonist” (J Med Chem, 2005)
